Assay results: patent US20110009597A1, “RECOMBINANT GANODERMA LUCIDIUM IMMUNOMODULATORY PROTEIN (rLZ-8) AND USES THEREOF” (priority 2008, published 2011)

B1: FITC-rLZ-8: rLZ-8 labelled with Fluorescein-5-Isothiocyanate (FITC) (conjugate, UniProt P14945 2-111, looked up)
Immunomodulatory protein Ling …: SDTALIFRLAWDVKKLSFDYTPNWGRGNPNNFIDTVTFPKVLTDKAYTYRVAVSGRNLGVKPSYAVESDGSQKVNFLEYNSGYGIADTNTIQVFVVDPDTNNDFIIAQWN
modifications: FITC label

Experiments:
WBC [1] = test: Number of leukocytes in S180 tumor-bearing mice; conditions: CTX 20 mg·kg^−1
Experimental: (§1) Mice, 18-22 g, males and females were equally divided, provided by Jilin University Laboratory Animal Center; Mice Ehrlich ascites cells strain, provided by our laboratory S180; Cyclophosphamide (CTX), offered by Jiangsu Hengrui Medicine Co., Ltd., lot number: 06101921. S180 ascites tumors and solid tumors in experiment group were divided into normal control group, negative control group, positive control group, rLZ-8 low-dose treatment group (0.25 mg·kg^−1), rLZ-8 medium-dose treatment group (0.5 mg·kg^−1), rLZ-8 high-dose treatment group (1 mg·kg^−1). For each group 10 mice.
Select well-growing S180 cells, dilute appropriately with sterile saline into a tumor cell suspension, cell counts for 10^7·L^−1, under the right armpit of each mouse inoculated subcutaneously 0.2 ml (except for the normal control group). Treatment after 24 h of vaccination. Normal control group and negative control group were given saline 0.2 ml·each^−l·d^−1, intraperitoneal injection; positive control group were given cyclophosphamide 20 mg·kg^−1, intraperitoneal injection. rLZ-8 treatment groups were given doses of tail venous injection respectively, 0.2 ml·each^−1·d^−1, in 10 consecutive days. Draw blood from orbital venous plexus 10 days before and after medication respectively, sent to Jilin University No. 1 Hospital clinical laboratory to test and analyze the number of WBC. […]

[2] = test system: Mouse hepatoma cell strain H22; test: H22 subcutaneous tumor inhibition experiment; assay type: in vivo, Mice; conditions: CTX 20 mg·kg^−1 intraperitoneal
Experimental: (§2) Mice, weight 18-22g, males and females were divided equally, from Jilin University Laboratory Animal Center. Mouse hepatoma cell strain H22, offered by our laboratory. Cyclophosphamide (CTX), offered by Jiangsu Hengrui Medicine Co., Ltd., lot number: 06101921.
(§3) H22 hepatoma cells experiment group were divided into normal control group, negative control group, positive control group, rLZ-8 low-dose treatment group (0.25 mg·kg^−1), rLZ-8 medium-dose treatment group (0.5 mg·kg^−1), rLZ-8 high-dose treatment group (1 mg·kg^−1). For each group 10 mice.
H22 subcutaneous tumor tumor inhibition experiment methods: Select well-growing 1-122 cells, dilute appropriately with sterile saline into a tumor cell suspension, cell counts for 10^7·L^−1, under the right armpit of each mouse inoculated subcutaneously 0.2 ml (except for the normal control group). Treatment after 24 h of vaccination. Normal control group and negative control group were given saline 0.2 ml·each^−1·d^−1, intraperitoneal injection; positive control group were given cyclophosphamide 20 mg·kg^−1, 0.2 ml·each^−1·d^−1, intraperitoneal injection. rLZ-8 treatment groups were given doses of tail venous injection respectively, 0.2 ml·each^−1·d^−1, in 10 consecutive days. Draw blood from orbital venous plexus 10 days before and after medication respectively, sent to Jilin University No. 1 Hospital clinical laboratory to test and analyze the number of WBC. Kill all the mice the next day of drug withdrawal at cervical dislocation, dissected anatomically and took out the tumors, weigh tumors, calculated the inhibition rate using the following equation:
Inhibition rate (%)=(average tumore weight of the control group−average tumor weight of the experiment group)/average tumor weight of the control group×100%

WBC [3] = test: WBC numbers in H22 tumor-bearing mice; conditions: CTX 20 mg·kg^−1
Experimental: as §2, §3
H22 subcutaneous tumor tumor inhibition experiment methods: Select well-growing 1-122 cells, dilute appropriately with sterile saline into a tumor cell suspension, cell counts for 10^7·L^−1, under the right armpit of each mouse inoculated subcutaneously 0.2 ml (except for the normal control group). Treatment after 24 h of vaccination. […] Kill all the mice the next day of drug withdrawal at cervical dislocation, dissected anatomically and took out the tumors, weigh tumors, calculated the inhibition rate using the following equation: […]

S180 cells = test: Mouse transplanted S180 subcutaneous tumor inhibition; assay type: in vivo, Mice; conditions: CTX 20 mg·kg^−1 intraperitoneal
Experimental: as §1
Select well-growing S180 cells, dilute appropriately with sterile saline into a tumor cell suspension, cell counts for 10^7·L^−1, under the right armpit of each mouse inoculated subcutaneously 0.2 ml (except for the normal control group). Treatment after 24 h of vaccination. Normal control group and negative control group were given saline 0.2 ml·each^−l·d^−1, intraperitoneal injection; positive control group were given cyclophosphamide 20 mg·kg^−1, intraperitoneal injection. rLZ-8 treatment groups were given doses of tail venous injection respectively, 0.2 ml·each^−1·d^−1, in 10 consecutive days. Draw blood from orbital venous plexus 10 days before and after medication respectively, sent to Jilin University No. 1 Hospital clinical laboratory to test and analyze the number of WBC. Kill all mice the next day of drug withdrawal at cervical dislocation, dissect anatomically and take out the tumors, weigh tumors, calculate the inhibition rate using the following equation:
Inhibition rate (%)=(average tumore weight of the control group−average tumore weight of the experiment group)/average tumor weight of the control group×100%

HL-60 cells = test: FITC-rLZ-8 labeling of HL-60 cells; assay type: binding
Experimental: Fluorescence microscope 80i (Nikon), IMDM cell culture medium (Hyclone), fetal bovine serum (FBS, Gibco), FITC-rLZ-8 and isotonic PBS buffer (pH7.2) Prepared by our laboratory.
Vaccinated the HL-60 by 2×106 inoculation on 24-hole plate, each hole 0.5 ml, with IMDM (2% FBS) culture medium prepared FITC-rLZ-8 for 100 ng·ml^−1, each hole 0.5 ml hatching (37° C.), establish a control group, experiment group 1 h and experiment group 6 h, draw the cells respectively from 1 h and 6 h, mixing into 1.5 ml EP tube, 1000 r·min^−1 centrifuge, clear the supernatant, wash with PBS 3 times, re-suspend after washing.

rat myocardial tissues = test: FITC-rLZ-8 labeling of rat myocardial tissues; assay type: binding; conditions: FITC-rLZ-8 100 ng·ml^−1, 1 h, 37° C.
Experimental: Leica CM1850 frozen slicer; wistar rat; fluorescence microscope 80i (Nikon); isotonic PBS buffer (pH7.2); fetal bovine serum (FBS, Gibco); FITC-rLZ-8 is prepared by our laboratory. Cut the rats at neck and kill them, and strip the hearts, put them to frozen microtome till the temperature dropped to −20° C. for slicing, hatching for 1 h at 37° C. when the myocaridial and PBS preparation of FITC-rLZ-8 solution (100 ng·ml^−1), observing under fluorescence microscope to observe, and establish a blank control group.

rabbit chondrocytes = test: FITC-rLZ-8 labeling of primary rabbit chondrocytes; assay type: binding; conditions: FITC-rLZ-8 0.25 μg·ml^−1, 1 h, 37° C.
Experimental: Japanese white rabbits (male, 2.5 kg) 4; surgical instruments; 025% trypsogen+0.02% EDTA; 0.2% collagenasell; D-Hanks; IMDM medium ([…], vitamin C, double-antibody); 0.025 mg·ml^−1 Poly-lysine solution; sterile water for injection (WFI).
Fix the experiment animals and execute them with air embolism, skinned abdominal in the middle and exposed the limbs, cutting the muscle fascia with scissors, disconnected the backbone from os longum, remove carefully the entire knee, hip and shoulder bones, with a rough pruning, immersed into D-Hanks. Moved the beaker with tissues into the super-clean units, move the tissues after pruning and cleansing into the 2nd sterile D-Hanks cup; assemble the knife, cutting a thin layer of cartilage off, use curved forceps move into the 6 cm culture incubator, washing with D-Hanks three times, discard majority of D-Hanks, cut the cartilage into 1 mm slices with ophthalmic scissors, discard majority of D-Hanks, spoon removing the broken bone vials into a 10 cm^2 culture flask, mix with trypsogen EDTA for digestion, 37° C., 30 min; replace the trypsogen for collagenase, put it into the hatching incubator of 37° C., taking out and shaking 5 min every 1 h, with 4-4.5 h, finish digestion. Prepare it to the cell suspension solution and mix 3 ml IMDM containing FBS 15%, 5×10^4·ml^−1 vaccinated into the culture flask. […]

Row | Molecule | Number of leukocytes, 10th day of medication (WBC [1]) | Inhibition rate (%) [2] | Tumor weight [2] | WBC numbers, 10th day of medication (WBC [3]) | Inhibition rate (%) (S180 cells) | Tumor weight (S180 cells) | cell appearance of HL-60 (HL-60 cells; FITC-rLZ-8 100 ng·ml^−1, group 6 h) | fluorescence of HL-60 cells (HL-60 cells; FITC-rLZ-8 100 ng·ml^−1, incubation of 1 h and 6 h) | fluorescence of myocardial tissues (rat myocardial tissues) | fluorescence of rabbit chondrocytes (rabbit chondrocytes)
1 | O=P1(N(CCCl)CCCl)NCCCO1 (stereo not shown) [CTX, Cyclophosphamide, reference compound] | 4.41 ± 0.25 | 62.5% | 0.45 ± 0.02 g | 4.49 ± 0.21 | 65.3% | 0.35 ± 0.02 g |  |  |  | 
2 | B1 |  |  |  |  |  |  | agglutination of cells | strong green fluorescence | without visible fluorescence | without green fluorescence
